Laboratory results published in ChEMBL document CHEMBL1914418, “Biochemical and pharmacological profiling of the pro-survival protein Bcl-xL” (Bioorg Med Chem Lett, 2011).
pKd, pKi: −log10 of the molar value.

Experiments:
[1] = molecular target: T1, Bcl-2-like protein 1 (Homo sapiens, UniProt Q07817, G196A); assay: Displacement of BODIPY-Bak conjugated peptide from GST-tagged human Bcl-2-like protein 1 G196A mutant expressed in Escherichia coli BL21 cells at 40 uM after 3 hrs by fluorescence polarization competition assay
T1 sequence (Q07817 whole entry G196A): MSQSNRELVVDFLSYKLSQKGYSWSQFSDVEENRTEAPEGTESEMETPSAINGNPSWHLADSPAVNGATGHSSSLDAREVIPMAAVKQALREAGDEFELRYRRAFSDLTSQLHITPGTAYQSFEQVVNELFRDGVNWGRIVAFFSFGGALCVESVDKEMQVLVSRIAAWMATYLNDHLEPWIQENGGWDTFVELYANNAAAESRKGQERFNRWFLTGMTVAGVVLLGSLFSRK

[2] = Displacement of BODIPY-Bak conjugated peptide from GST-tagged human Bcl-2-like protein 1 A142G, delta136T mutant expressed in Escherichia coli BL21 cells at 40 uM after 3 hrs by fluorescence polarization competition assay
[3] = Displacement of BODIPY-Bak conjugated peptide from GST-tagged human Bcl-2-like protein 1 delta136T mutant expressed in Escherichia coli BL21 cells at 40 uM after 3 hrs by fluorescence polarization competition assay
[4] = molecular target: T2, Bcl-2-like protein 1 (Homo sapiens, UniProt Q07817, A142T); assay: Displacement of BODIPY-Bak conjugated peptide from GST-tagged human Bcl-2-like protein 1 A142T mutant expressed in Escherichia coli BL21 cells at 40 uM after 3 hrs by fluorescence polarization competition assay
T2 sequence (Q07817 whole entry A142T): as the sequence (Q07817 whole entry G196A) above, with A142T, A196G counted along it

[5] = molecular target: T3, Bcl-2-like protein 1 (Homo sapiens, UniProt Q07817, F97V); assay: Displacement of BODIPY-Bak conjugated peptide from GST-tagged human Bcl-2-like protein 1 F97V mutant expressed in Escherichia coli BL21 cells at 40 uM after 3 hrs by fluorescence polarization competition assay
T3 sequence (Q07817 whole entry F97V): as the sequence (Q07817 whole entry G196A) above, with F97V, A196G counted along it

[6] = molecular target: T4, Bcl-2-like protein 1 (Homo sapiens, UniProt Q07817, Y101H); assay: Displacement of BODIPY-Bak conjugated peptide from GST-tagged human Bcl-2-like protein 1 Y101H mutant expressed in Escherichia coli BL21 cells at 40 uM after 3 hrs by fluorescence polarization competition assay
T4 sequence (Q07817 whole entry Y101H): as the sequence (Q07817 whole entry G196A) above, with Y101H, A196G counted along it

[7] = molecular target: T5, Bcl-2-like protein 1 (Homo sapiens, UniProt Q07817, A93V); assay: Displacement of BODIPY-Bak conjugated peptide from GST-tagged human Bcl-2-like protein 1 A93V mutant expressed in Escherichia coli BL21 cells at 40 uM after 3 hrs by fluorescence polarization competition assay
T5 sequence (Q07817 whole entry A93V): as the sequence (Q07817 whole entry G196A) above, with A93V, A196G counted along it

[8] = molecular target: T6, Bcl-2-like protein 1 (Homo sapiens, UniProt Q07817); assay: Displacement of BODIPY-Bak conjugated peptide from GST-tagged human Wild type Bcl-2-like protein 1 expressed in Escherichia coli BL21 cells at 40 uM after 3 hrs by fluorescence polarization competition assay
T6 sequence (Q07817 whole entry): as the sequence (Q07817 whole entry G196A) above, with A196G counted along it

[9] = molecular target: Bcl-2-like protein 1 (Homo sapiens, UniProt Q07817, L130V); assay: Displacement of BODIPY-Bak conjugated peptide from GST-tagged human Bcl-2-like protein 1 L130V mutant expressed in Escherichia coli BL21 cells at 40 uM after 3 hrs by fluorescence polarization competition assay
Chain of Bcl-2-like protein 1 (Homo sapiens, UniProt Q07817, L130V) (Q07817 whole entry L130V): as the sequence (Q07817 whole entry G196A) above, with L130V, A196G counted along it

[10] = molecular target: T7, Bcl-2-like protein 1 (Homo sapiens, UniProt Q07817, L130G); assay: Displacement of BODIPY-Bak conjugated peptide from GST-tagged human Bcl-2-like protein 1 L130G mutant expressed in Escherichia coli BL21 cells at 40 uM after 3 hrs by fluorescence polarization competition assay
T7 sequence (Q07817 whole entry L130G): as the sequence (Q07817 whole entry G196A) above, with L130G, A196G counted along it

[11] = molecular target: T8, Bcl-2-like protein 1 (Homo sapiens, UniProt Q07817, Y195F); assay: Displacement of BODIPY-Bak conjugated peptide from GST-tagged human Bcl-2-like protein 1 Y195F mutant expressed in Escherichia coli BL21 cells at 40 uM after 3 hrs by fluorescence polarization competition assay
T8 sequence (Q07817 whole entry Y195F): as the sequence (Q07817 whole entry G196A) above, with Y195F, A196G counted along it

[12] = molecular target: T9, Bcl-2-like protein 1 (Homo sapiens, UniProt Q07817, A142G); assay: Displacement of BODIPY-Bak conjugated peptide from GST-tagged human Bcl-2-like protein 1 A142G mutant expressed in Escherichia coli BL21 cells at 40 uM after 3 hrs by fluorescence polarization competition assay
T9 sequence (Q07817 whole entry A142G): as the sequence (Q07817 whole entry G196A) above, with A142G, A196G counted along it

[13] = molecular target: T10, Bcl-2-like protein 1 (Homo sapiens, UniProt Q07817, E96G); assay: Displacement of BODIPY-Bak conjugated peptide from GST-tagged human Bcl-2-like protein 1 E96G mutant expressed in Escherichia coli BL21 cells at 40 uM after 3 hrs by fluorescence polarization competition assay
T10 sequence (Q07817 whole entry E96G): as the sequence (Q07817 whole entry G196A) above, with E96G, A196G counted along it

[14] = molecular target: T11, Bcl-2-like protein 1 (Homo sapiens, UniProt Q07817, E129H); assay: Displacement of BODIPY-Bak conjugated peptide from GST-tagged human Bcl-2-like protein 1 E129H mutant expressed in Escherichia coli BL21 cells at 40 uM after 3 hrs by fluorescence polarization competition assay
T11 sequence (Q07817 whole entry E129H): as the sequence (Q07817 whole entry G196A) above, with E129H, A196G counted along it

[15] = molecular target: Bcl-2-like protein 1 (Homo sapiens, UniProt Q07817, R100E); assay: Displacement of BODIPY-Bak conjugated peptide from GST-tagged human Bcl-2-like protein 1 R100E mutant expressed in Escherichia coli BL21 cells at 40 uM after 3 hrs by fluorescence polarization competition assay
Chain of Bcl-2-like protein 1 (Homo sapiens, UniProt Q07817, R100E) (Q07817 whole entry R100E): as the sequence (Q07817 whole entry G196A) above, with R100E, A196G counted along it

[16] = molecular target: T12, Bcl-2-like protein 1 (Homo sapiens, UniProt Q07817, L130A); assay: Displacement of BODIPY-Bak conjugated peptide from GST-tagged human Bcl-2-like protein 1 L130A mutant expressed in Escherichia coli BL21 cells at 40 uM after 3 hrs by fluorescence polarization competition assay
T12 sequence (Q07817 whole entry L130A): as the sequence (Q07817 whole entry G196A) above, with L130A, A196G counted along it

[17] = molecular target: T13, Bcl-2-like protein 1 (Homo sapiens, UniProt Q07817, V141A); assay: Displacement of BODIPY-Bak conjugated peptide from GST-tagged human Bcl-2-like protein 1 V141A mutant expressed in Escherichia coli BL21 cells at 40 uM after 3 hrs by fluorescence polarization competition assay
T13 sequence (Q07817 whole entry V141A): as the sequence (Q07817 whole entry G196A) above, with V141A, A196G counted along it

[18] = molecular target: T9, Bcl-2-like protein 1; assay: Displacement of BODIPY-Bak conjugated peptide from GST-tagged human Bcl-2-like protein 1 A142G mutant expressed in Escherichia coli BL21 cells at 10 uM after 3 hrs by fluorescence polarization competition assay
[19] = Displacement of BODIPY-Bak conjugated peptide from GST-tagged human Bcl-2-like protein 1 delta136T mutant expressed in Escherichia coli BL21 cells at 10 uM after 3 hrs by fluorescence polarization competition assay
[20] = Displacement of BODIPY-Bak conjugated peptide from GST-tagged human Bcl-2-like protein 1 A142Gdelta136T mutant expressed in Escherichia coli BL21 cells at 10 uM after 3 hrs by fluorescence polarization competition assay
[21] = molecular target: T11, Bcl-2-like protein 1; assay: Displacement of BODIPY-Bak conjugated peptide from GST-tagged human Bcl-2-like protein 1 E129H mutant expressed in Escherichia coli BL21 cells at 10 uM after 3 hrs by fluorescence polarization competition assay
[22] = molecular target: T6, Bcl-2-like protein 1; assay: Displacement of BODIPY-Bak conjugated peptide from GST-tagged human Wild type Bcl-2-like protein 1 expressed in Escherichia coli BL21 cells at 10 uM after 3 hrs by fluorescence polarization competition assay
[23] = molecular target: T7, Bcl-2-like protein 1; assay: Displacement of BODIPY-Bak conjugated peptide from GST-tagged human Bcl-2-like protein 1 L130G mutant expressed in Escherichia coli BL21 cells at 10 uM after 3 hrs by fluorescence polarization competition assay
[24] = molecular target: T10, Bcl-2-like protein 1; assay: Displacement of BODIPY-Bak conjugated peptide from GST-tagged human Bcl-2-like protein 1 E96G mutant expressed in Escherichia coli BL21 cells at 10 uM after 3 hrs by fluorescence polarization competition assay
[25] = molecular target: T12, Bcl-2-like protein 1; assay: Displacement of BODIPY-Bak conjugated peptide from GST-tagged human Bcl-2-like protein 1 L130A mutant expressed in Escherichia coli BL21 cells at 10 uM after 3 hrs by fluorescence polarization competition assay
[26] = molecular target: T4, Bcl-2-like protein 1; assay: Displacement of BODIPY-Bak conjugated peptide from GST-tagged human Bcl-2-like protein 1 Y101H mutant expressed in Escherichia coli BL21 cells at 10 uM after 3 hrs by fluorescence polarization competition assay
[27] = molecular target: T2, Bcl-2-like protein 1; assay: Displacement of BODIPY-Bak conjugated peptide from GST-tagged human Bcl-2-like protein 1 A142T mutant expressed in Escherichia coli BL21 cells at 10 uM after 3 hrs by fluorescence polarization competition assay
[28] = molecular target: Induced myeloid leukemia cell differentiation protein Mcl-1 homolog (Mus musculus, UniProt P97287); assay: Binding affinity for GST-tagged mouse MCL1 expressed in Escherichia coli BL21 cells
Chain of Induced myeloid leukemia cell differentiation protein Mcl-1 homolog (P97287 whole entry): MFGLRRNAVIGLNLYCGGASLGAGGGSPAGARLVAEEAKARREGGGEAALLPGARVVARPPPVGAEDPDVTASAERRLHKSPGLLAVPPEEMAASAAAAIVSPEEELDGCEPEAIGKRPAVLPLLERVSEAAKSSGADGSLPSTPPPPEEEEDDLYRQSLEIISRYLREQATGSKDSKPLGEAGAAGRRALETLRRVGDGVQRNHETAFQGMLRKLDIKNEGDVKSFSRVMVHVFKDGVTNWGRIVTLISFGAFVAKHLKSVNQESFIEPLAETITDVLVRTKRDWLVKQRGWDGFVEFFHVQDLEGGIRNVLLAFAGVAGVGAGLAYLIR

[29] = molecular target: T14, Bcl-2-related protein A1 (Homo sapiens, UniProt Q16548); assay: Binding affinity for GST-tagged human BCL2A1 expressed in Escherichia coli BL21 cells
T14 sequence (Q16548 whole entry): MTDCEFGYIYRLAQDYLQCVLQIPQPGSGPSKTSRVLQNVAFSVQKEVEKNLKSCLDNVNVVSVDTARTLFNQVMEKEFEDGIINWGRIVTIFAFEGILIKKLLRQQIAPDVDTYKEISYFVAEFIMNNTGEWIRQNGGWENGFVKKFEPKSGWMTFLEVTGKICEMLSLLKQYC

[30] = molecular target: T13, Bcl-2-like protein 1; assay: Displacement of BODIPY-Bak conjugated peptide from GST-tagged human Bcl-2-like protein 1 V141A mutant expressed in Escherichia coli BL21 cells at 10 uM after 3 hrs by fluorescence polarization competition assay
[31] = molecular target: T8, Bcl-2-like protein 1; assay: Displacement of BODIPY-Bak conjugated peptide from GST-tagged human Bcl-2-like protein 1 Y195F mutant expressed in Escherichia coli BL21 cells at 10 uM after 3 hrs by fluorescence polarization competition assay
[32] = molecular target: T5, Bcl-2-like protein 1; assay: Displacement of BODIPY-Bak conjugated peptide from GST-tagged human Bcl-2-like protein 1 A93V mutant expressed in Escherichia coli BL21 cells at 10 uM after 3 hrs by fluorescence polarization competition assay
[33] = molecular target: T3, Bcl-2-like protein 1; assay: Displacement of BODIPY-Bak conjugated peptide from GST-tagged human Bcl-2-like protein 1 F97V mutant expressed in Escherichia coli BL21 cells at 10 uM after 3 hrs by fluorescence polarization competition assay
[34] = molecular target: T1, Bcl-2-like protein 1; assay: Displacement of BODIPY-Bak conjugated peptide from GST-tagged human Bcl-2-like protein 1 G196A mutant expressed in Escherichia coli BL21 cells at 10 uM after 3 hrs by fluorescence polarization competition assay

Molecule	pKi [1]	pKi [2]	pKi [3]	pKi [4]	pKi [5]	pKi [6]	pKi [7]	pKi [8]	pKi [9]	pKi [10]	pKi [11]	pKi [12]	pKi [13]	pKi [14]	pKi [15]	pKi [16]	pKi [17]	pKi [19]	pKi [20]	pKd [28]	other results
CSCC[C@H](NC(=O)[C@H](CCCNC(=N)N)NC(=O)[C@H](CCCNC(=N)N)NC(=O)[C@H](CC(C)C)NC(=O)[C@H](CCC(=O)O)NC(=O)[C@H](CCCNC(=N)N)NC(=O)CNC(=O)[C@H](Cc1ccc(O)cc1)NC(=O)[C@H](CCCNC(=N)N)NC(=O)[C@H](CCC(N)=O)NC(=O)[C@H](C)NC(=O)[C@H](C)NC(=O)[C@H](Cc1c[nH]c2ccccc12)NC(=O)[C@@H](N)CC(C)C)C(=O)N[C@@H](CO)C(=O)N[C@@H](CC(=O)O)C(=O)N[C@@H](CCC(=O)O)C(=O)N[C@@H](Cc1ccccc1)C(=O)N[C@@H](CCC(=O)O)C(=O)NCC(=O)N[C@@H](CO)C(=O)N[C@@H](Cc1ccccc1)C(=O)N[C@@H](CCCCN)C(=O)NCC(=O)N[C@@H](CC(C)C)C(=O)O	8.64	8.01	8.07	7.39	6.82	7.02	> 9.00	8.49	7.96	6.18	8.35	> 9.00	> 8.30	7.11	7.26	6.85	7.38	–	–	–	–
CC[C@H](C)[C@H](NC(=O)[C@H](CCC(=O)O)NC(=O)[C@H](CCCNC(=N)N)NC(=O)[C@H](C)NC(=O)[C@H](Cc1c[nH]c2ccccc12)NC(=O)[C@H](CCC(N)=O)NC(=O)[C@H](CCC(=O)O)NC(=O)[C@@H](N)CCC(=O)O)C(=O)NCC(=O)N[C@@H](C)C(=O)N[C@@H](CCC(N)=O)C(=O)N[C@@H](CC(C)C)C(=O)N[C@@H](CCCNC(=N)N)C(=O)N[C@@H](CCCNC(=N)N)C(=O)N[C@@H](CCSC)C(=O)N[C@@H](C)C(=O)N[C@@H](CC(=O)O)C(=O)N[C@@H](CC(=O)O)C(=O)N[C@@H](CC(C)C)C(=O)N[C@@H](CC(N)=O)C(=O)N[C@@H](C)C(=O)N[C@@H](CCC(N)=O)C(=O)N[C@@H](Cc1ccc(O)cc1)C(=O)N[C@@H](CCC(=O)O)C(=O)N[C@@H](CCCNC(=N)N)C(=O)N[C@@H](CCCNC(=N)N)C(=O)O	8.05	7.12	7.59	6.89	7.05	6.42	< 5.00	8.85	7.54	6.28	8.06	8.01	< 5.00	6.77	6.74	6.92	7.00	–	–	–	–
CN(C)CC[C@H](CSc1ccccc1)Nc1ccc(S(=O)(=O)NC(=O)c2ccc(N3CCC(C)(C)CC3)cc2)cc1[N+](=O)[O-]	–	–	–	–	–	–	–	–	–	–	–	–	–	–	–	–	–	7.47	7.35	< 6.00	pKi [18]: 6.54; pKi [21]: 7.47; pKi [22]: 8.20; pKi [23]: 7.07; pKi [24]: 7.62; pKi [25]: 7.33; pKi [26]: 6.35; pKi [27]: 6.14; pKd [29]: < 6.00; pKi [30]: 6.41; pKi [31]: 7.29; pKi [32]: > 9.00; pKi [33]: 7.09; pKi [34]: 7.39
CN(C)CC[C@H](CSc1ccccc1)Nc1ccc(S(=O)(=O)NC(=O)c2ccc(N3CCN(Cc4ccccc4-c4ccc(Cl)cc4)CC3)cc2)cc1[N+](=O)[O-] [ABT 737]	–	–	–	–	–	–	–	–	–	–	–	–	–	–	–	–	–	7.22	8.00	< 6.00	pKd [29]: < 6.00
H-PAELEVECATQLRRFGDKLNFRQKLL-OH	< 5.00	< 5.00	< 5.00	< 5.00	< 5.00	< 5.00	< 5.00	< 5.00	< 5.00	< 5.00	< 5.00	< 5.00	< 5.00	< 5.00	< 5.00	< 5.00	< 5.00	–	–	–	–
